In brackets after ≈: the same amount, converted by molar mass. Where a name gives a salt, the structure may show the parent alone.
What was measured:
[1] = tested on: polyclonal antibodies (antiserum raised to Immunogen II), detecting agent Hapten 1-HRP; assay: Biochip competitive immunoassay (antibody characterisation, cross-reactivity); type: binding, sheep; conditions: for % Cross-reactivity: CR based on 100% for 1-benzylpiperazine, detecting agent derived from Hapten-1, % CR = IC50 1-benzylpiperazine/IC50 CR x 100; for IC50: detecting agent derived from Hapten-1, competitive assay format
Experimental: Pre-immunisation blood samples were collected from 16-month-old female Suffolk sheep. The immunisation mixture was prepared by adding 2 mg of immunogen prepared in PBS at a ratio of 50% lmmunogen/PBS with 50% Freund's Complete adjuvant (Sigma, Product Number—F5881) and emulsifying the mixture to prepare the final product for immunisation. On Day 0, each sheep was immunized intramuscularly with 1 ml of the mixture described above, with 2-[4-(piperazin-1-yl-methyl)phenoxy]acetic acid conjugated to a carrier protein bovine thyroglobulin (BTG) (as in example 6 above). Subsequent boosts (a total of 20 boosts) were administered intramuscularly to each sheep every 30 days. Freund's complete adjuvant (Sigma, Product Number—F5881) was used for primary immunizations and Freund's incomplete adjuvant (Sigma product Number—F5506) was used for all subsequent injections. Routine bleeds were taken between boosts to monitor the antibody titre and sensitivity, using hapten 1 conjugated to Horseradish peroxidase in a competitive ELISA, testing cross reactivity to 1-Benzylpiperazine and 4-OH benzylpiperazine.
Once the antibody titres were assessed as meeting the required performance criteria i.e. there was no significant increase in antibody titre and a plateau had been reached in the % displacement profile, antibodies were then evaluated by competitive immunoassay. They were first immobilized on a biochip platform (9 mm×9 mm) (Randox Laboratories Ltd.), which was the vessel for the immunoreactions. The semi-automated bench top analyser Evidence Investigator was used (EV3602, Randox Laboratories Ltd., Crumlin, UK, patents-EP98307706, EP98307732, EP0902394, EP1227311, EP1434995 and EP1354623). The assay principle was based on competition for binding sites of the polyclonal antibodies between free antigen (1-Benzylpiperazine and other cross-reactants) and labelled conjugate (Hapten 1-HRP, prepared as in example 6). Assay dilutent (155 μl), calibrator/1-benzylpiperazine or potential cross-reactant (25 μl) followed by Hapten 1-HRP conjugate (120 μl) were added to the appropriate biochip. The biochips were then incubated for 30 minutes at 30° C. on a thermo-shaker set at 370 rpm. The biochips were then subjected to 2 quick wash cycles using the wash buffer provided, followed by 4×2 minute wash cycles. 250 μl of signal (1:1 luminol+peroxide, v/v) was then added to each biochip, and after 2 minutes the biochip carrier was imaged in the Evidence Investigator analyser. The system incorporates dedicated software to automatically process, report and archive the data generated (details can be found in FitzGerald, S. P. et al, Clin. Chem. 51(7); 1165-1176; 2005).
Calibration curves were generated using the Biochip based immunoassay as described above. The IC50 was calculated from the graphs by taking 50% of the signal from the zero calibrator and reading the corresponding value on the x-axis, equivalent to the concentration of unlabelled ligand which reduces specific binding of labelled ligand by 50%. Specificity was also tested against a range of related analytes (Table 1). Cross-reactivity was calculated according to the following formula: % CR=IC50, 1-benzylpiperazine/IC50, CR×100 where % CR is the percentage cross-reactivity, IC50, 1-benzylpiperazine is the concentration of 1-benzylpiperazine that causes 50% displacement of signal and IC50, CR is the concentration of 1-benzylpiperazine/metabolites/structurally-related molecules that causes 50% displacement of signal.

[2] = cited from earlier work
[3] = Wistar rats, cited from earlier work; for % of the dose excreted as this molecule: BZP dosed; for detectability in urine post-dosing / time of peak urinary level post-dosing: urine
MDMA immunoassay = conditions: commercial MDMA immunoassay; cited from earlier work

Row | SMILES | % Cross-reactivity [1] [%] | IC50 [1] [µg/mL] | further results
1 | COc1ccccc1N1CCNCC1 [1-(2-Methoxyphenyl)piperazine diHCl, 1-(2-Methoxyphenyl)piperazine] | 3.2 | 0.0438 | –
2 | Oc1cccc(N2CCNCC2)c1 [1-(3-Hydroxyphenyl)piperazine] | 1.0 | 0.14 (≈ 0.785 µM) | –
3 | Cc1cccc(N2CCNCC2)c1 [1-(3-Methylphenyl)piperazine] | 3.9 | 0.0359 (≈ 0.204 µM) | –
4 | FC(F)(F)c1cccc(N2CCNCC2)c1 [1-(3-Trifluoromethylphenyl)piperazine] | 1.9 | 0.0737 (≈ 0.32 µM) | –
5 | Cc1ccc(N2CCNCC2)cc1 [1-(4-Methylphenyl)piperazine] | 1.3 | 0.1077 (≈ 0.611 µM) | –
6 | c1ccc(CN2CCNCC2)cc1 [1-Benzylpiperazine, 1-benzylpiperazine] | 100.0 | 0.0014 (≈ 0.00794 µM) | elimination half life ([2]; in vivo): 5 to 6 h; time at which elimination is complete ([2]; in vivo): around 44 hrs; time to detection in plasma ([2]; oral dose of BZP hydrochloride): ≤ 30 min; % of the dose excreted as this molecule [3]: 6.7%; detectability in urine post-dosing [3]: undetectable at 48hrs; time of peak urinary level post-dosing [3]: around 4 hrs; concentration needed for a positive result (MDMA immunoassay): 3,000,000 ng/mL
7 | c1ccc(N2CCNCC2)cc1 [1-Phenylpiperazine] | 3.4 | 0.0412 (≈ 0.254 µM) | –
8 | c1cc2c(cc1CN1CCNCC1)OCO2 [1-Piperonylpiperazine] | 101.5 | 0.0014 (≈ 0.00636 µM) | –
9 | Oc1cccc(CN2CCNCC2)c1 [3-(Piperazin-1ylmethyl)phenol diHCl, 3-(Piperazin-1ylmethyl)phenol] | 123.7 | 0.0011 | % of the dose excreted as this molecule [3]: 2%; detectability in urine post-dosing [3]: detectable up to 48hrs; time of peak urinary level post-dosing [3]: around 8 hrs
10 | Oc1ccc(CN2CCNCC2)cc1 [4-OH Benzylpiperazine, 4-OH benzylpiperazine] | 172.1 | 0.0008 (≈ 0.00416 µM) | % of the dose excreted as this molecule [3]: 25%; detectability in urine post-dosing [3]: detectable up to 48hrs; time of peak urinary level post-dosing [3]: around 8 hrs
11 | Cc1cccc(CN2CCNCC2)c1 [N-(3-Methylbenzyl)piperazine diHCl, N-(3-Methylbenzyl)piperazine] | 52.9 | 0.0026 | –
12 | Clc1cccc(N2CCNCC2)c1 [mCPP HCl, 1-(3-chlorophenyl)piperazine] | 0.6 | 0.2333 | –

Source: patent publication US9587035B2, “Assay for benzylpiperazine and metabolites” (Randox Laboratories Limited, priority 2012, dated 2017)
